Assay results taken from patent US20110301200A1, “THYROID RECEPTOR LIGANDS” (CADILA HEALTHCARE LIMITED, priority 2008, published 2011).

Experiments:
TR-β = target: T1, TR-β (Homo sapiens, UniProt P10828); assay: In vitro TR-β activity (in-house protocol); assay type: cell-based; settings: for fold induction at 0.001 µM: Conc. 1 nM; for fold induction at 0.001 µM / fold induction at 0.01 µM / fold induction at 0.1 µM / fold induction at 1 µM: read-out: TR-β Fold Induction w.r.t T3(100 nm); for fold induction at 0.01 µM: Conc. 10 nM; for fold induction at 0.1 µM: Conc. 100 nM; for fold induction at 1 µM: Conc. 1000 nM
T1 sequence (P10828 1-461): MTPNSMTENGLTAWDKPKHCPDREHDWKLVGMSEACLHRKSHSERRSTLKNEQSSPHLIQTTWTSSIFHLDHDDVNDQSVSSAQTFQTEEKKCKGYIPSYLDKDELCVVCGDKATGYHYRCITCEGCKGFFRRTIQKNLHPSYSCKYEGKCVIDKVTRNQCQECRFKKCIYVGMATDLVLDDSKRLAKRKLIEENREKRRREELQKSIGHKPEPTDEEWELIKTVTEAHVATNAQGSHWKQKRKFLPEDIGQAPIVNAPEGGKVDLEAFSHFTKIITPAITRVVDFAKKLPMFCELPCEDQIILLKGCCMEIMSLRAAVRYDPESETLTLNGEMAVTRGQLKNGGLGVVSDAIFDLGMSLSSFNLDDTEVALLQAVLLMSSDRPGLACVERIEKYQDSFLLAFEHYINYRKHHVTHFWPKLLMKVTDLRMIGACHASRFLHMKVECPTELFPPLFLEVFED
Procedure: (§1) In vitro TR-α & TR-β activities were determined as per in-house protocols and the results of representative compounds are provided in tables 1 & 2 below as a proof of the efficacies of the novel class of compounds disclosed above.

TR-α = target: T2, TR-α (Homo sapiens, UniProt P10827); assay: In vitro TR-α activity (in-house protocol); assay type: cell-based; settings: for fold induction at 0.001 µM: Conc. 1 nM; for fold induction at 0.001 µM / fold induction at 0.01 µM / fold induction at 0.1 µM / fold induction at 1 µM: read-out: TR-α Fold Induction w.r.t T3(100 nm); for fold induction at 0.01 µM: Conc. 10 nM; for fold induction at 0.1 µM: Conc. 100 nM; for fold induction at 1 µM: Conc. 1000 nM
T2 sequence (P10827 1-410 isoform P10827-2): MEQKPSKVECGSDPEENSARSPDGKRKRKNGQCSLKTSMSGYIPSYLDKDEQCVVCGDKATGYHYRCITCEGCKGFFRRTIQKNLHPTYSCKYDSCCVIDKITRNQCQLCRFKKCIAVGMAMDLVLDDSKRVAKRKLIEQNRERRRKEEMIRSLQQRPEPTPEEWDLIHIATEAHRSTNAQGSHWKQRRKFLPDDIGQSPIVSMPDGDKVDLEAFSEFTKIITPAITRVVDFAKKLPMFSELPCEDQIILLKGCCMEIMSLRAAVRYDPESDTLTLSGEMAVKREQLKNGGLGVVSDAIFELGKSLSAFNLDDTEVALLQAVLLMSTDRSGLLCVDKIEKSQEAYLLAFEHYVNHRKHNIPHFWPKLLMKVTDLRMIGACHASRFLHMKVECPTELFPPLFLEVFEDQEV
Procedure: as §1

cholesterol-fed rats = assay: Cholesterol lowering and change in heart rate in cholesterol-fed rats; assay type: in vivo, rat; settings: treated for 7 days
Procedure: Cholesterol lowering effect of T3 and selected compounds disclosed in the present invention on cholesterol lowering and change in heart rate in cholesterol-fed rats (treated for 7 days) was determined according to the general protocol described in PNAS, vol. […] Therefore, these compounds have the potential to be further developed as selective TR-beta agonists for the treatment of human & other animals in need of such treatment.

| fold induction at 0.001 µM (TR-β) | fold induction at 0.01 µM (TR-β) | fold induction at 0.1 µM (TR-β) | fold induction at 1 µM (TR-β) | fold induction at 0.001 µM (TR-α) | fold induction at 0.01 µM (TR-α) | fold induction at 0.1 µM (TR-α) | fold induction at 1 µM (TR-α) | EC50 (TR-β) [nM] | EC50 (TR-α) [nM] | Structure (SMILES) | % Change in Heart Rate (cholesterol-fed rats; oral 0.5 mg/kg) [%] | % Change in Total Cholesterol (cholesterol-fed rats; oral 0.5 mg/kg) [%] | % Change in Heart Rate (cholesterol-fed rats; oral 0.1 mg/kg) [%] | % Change in Total Cholesterol (cholesterol-fed rats; oral 0.1 mg/kg) [%] | % Change in Heart Rate (cholesterol-fed rats; oral 0.2 mg/kg) [%] | % Change in Total Cholesterol (cholesterol-fed rats; oral 0.2 mg/kg) [%] | % Change in Heart Rate (cholesterol-fed rats; oral 13 μg/kg) [%] | % Change in Total Cholesterol (cholesterol-fed rats; oral 13 μg/kg) [%] |
| --- | --- | --- | --- | --- | --- | --- | --- | --- | --- | --- | --- | --- | --- | --- | --- | --- | --- | --- |
| 17.7 | 49.5 | 92.1 | 138 | 18.3 | 38.5 | 93.8 | 133 | – | – | CC(C)c1cc(Oc2c(Br)cc(C=NOCC(=O)O)cc2Br)ccc1O [Example 3, 2-(((3,5-dibromo-4-(4-hydroxy-3-isopropylphenoxy)benzylidene)amino)oxy)acetic acid] | 4.2 | −68 | – | – | – | – | – | – |
| – | – | – | – | – | – | – | – | 0.99 | 5.12 | CCC(C)c1cc(Oc2c(Br)cc(C=NOC(C)C(=O)O)cc2Br)ccc1O (centres unmarked) [Example 14, 2-(((3,5-dibromo-4-(3-(sec-butyl)-4-hydroxyphenoxy)benzylidene)amino)oxy)propanoic acid] | – | – | −2 | −44 | – | – | – | – |
| – | – | – | – | – | – | – | – | 3.25 | 25 | CC(ON=Cc1cc(Br)c(Oc2ccc(O)c(C(C)C)c2)c(Br)c1)C(=O)O (centres unmarked) [Example 10, 2-(((3,5-dibromo-4-(4-hydroxy-3-isopropylphenoxy)benzylidene)amino)oxy)propanoic acid] | – | – | – | – | 9.5 | −45 | – | – |
| 6.51 | 6.74 | 14 | 58.1 | 12.6 | 12.8 | 17.7 | 46.1 | – | – | O=C(O)CON=Cc1cc(Br)c(Oc2ccc(O)c(S(=O)(=O)N3CCCC3)c2)c(Br)c1 [Example 41, 2-(((3,5-dibromo-4-(4-hydroxy-3-(pyrrolidin-1-ylsulfonyl)phenoxy)benzylidene)amino)oxy)acetic acid] | – | – | – | – | – | – | – | – |
| 7.72 | 20.6 | 52.6 | 53.4 | 11.8 | 25.7 | 73.5 | 99 | – | – | CC(C)c1cc(Oc2c(Cl)cc(C=NOCC(=O)O)cc2Cl)ccc1O [Example 1, 2-(((3,5-dichloro-4-(4-hydroxy-3-isopropylphenoxy)benzylidene)amino)oxy)acetic acid] | – | – | – | – | – | – | – | – |
| 7.3 | 4.48 | 15 | 60.8 | 17.7 | 9.9 | 20.4 | 91.4 | – | – | CC(ON=Cc1cc(Br)c(Oc2ccc(O)c(S(=O)(=O)N3CCCC3)c2)c(Br)c1)C(=O)O (centres unmarked) [Example 42, 2-(((3,5-dibromo-4-(4-hydroxy-3-(pyrrolidin-1-ylsulfonyl)phenoxy)benzylidene)amino)oxy)propanoic acid] | – | – | – | – | – | – | – | – |
| – | – | – | – | – | – | – | – | – | – | N[C@@H](Cc1cc(I)c(Oc2ccc(O)c(I)c2)c(I)c1)C(=O)O [Example T3, reference compound] | – | – | – | – | – | – | 14 | −46 |
| 21.2 | 31.3 | 81.5 | 85.6 | 21.6 | 38.5 | 66.2 | 109 | – | – | CCC(ON=Cc1cc(Br)c(Oc2ccc(O)c(Cc3ccccc3)c2)c(Br)c1)C(=O)O (centres unmarked) [Example 17, 2-(((4-(3-benzyl-4-hydroxyphenoxy)-3,5-dibromobenzylidene)amino)oxy)butanoic acid] | – | – | – | – | – | – | – | – |
| 15.9 | 37.1 | 84 | 74.6 | 11.6 | 39.8 | 60.6 | 64.9 | – | – | CCC(C)c1cc(Oc2c(Br)cc(C=NOCC(=O)O)cc2Br)ccc1O (centres unmarked) [Example 6, 2-(((3,5-dibromo-4-(3-(sec-butyl)-4-hydroxyphenoxy)benzylidene)amino)oxy)acetic acid] | – | – | – | – | – | – | – | – |
| 12.9 | 18.2 | 51.6 | 63.8 | 12.8 | 16.6 | 50.4 | 105 | – | – | CCC(ON=Cc1cc(Br)c(Oc2ccc(O)c(-c3ccccc3)c2)c(Br)c1)C(=O)O (centres unmarked) [Example 21, 2-(((3,5-dibromo-4-((6-hydroxy-[1,1′-biphenyl]-3-yl)oxy)benzylidene)amino)oxy)butanoic acid] | – | – | – | – | – | – | – | – |
